Source: patent US10208066B2, “Imidazopyridazine compounds and their use” (HUTCHISON MEDIPHARMA LIMITED, priority 2014, dated 2019)
Like-named read-outs stand apart in the source and are kept apart here.

Key:
[1] = test system: PI3Kδ signaling in basophils; assay: Inhibition of PI3Kδ signaling in basophils from human whole blood; assay type: cell-based; conditions: read-out: IC50, inhibition of PI3Kδ signaling in basophils
Experimental: Methods • 1) Heparinized human whole blood was mixed and pipetted into the 96 well v-bottom plate, 100 μL per well. • 2) 10 μL of stimulation buffer (1 mg/mL stock, final concentration of Recombinant human IL-3: 20 ng/mL) was added to the whole blood samples of each well and vortex gently. […] Vortex all the wells once more and incubate for 20 min at 37° C. • 5) Labeling with staining antibody: Degranulation was stopped by incubating the samples on ice for 5 min. 6 μL of staining antibody mixture (anti-CD63-FITC and anti-IgE-PE) was added into each well. Vortex and incubate the wells for 20 min in an ice bath, covered to prevent exposure to light. • 6) The whole blood samples were lysed with 300 uL RBC lysis (pre-warmed to room temperature, 20 to 25° C.). Vortex and incubate the samples for 15 min at room temperature. Spin down cells (5 min, 250×g, 4° C.). The supernatant was aspirated leaving approximately 100 μL in each well. • 7) The blood samples were lysed once more as step 6). • 8) Washing: The samples are washed once with 0.5 mL of washing solution. The plate was centrifuged (5 min, 250×g, 4° C.). The supernatant was aspirated leaving approximately 100 μL in each well. The sample in each well was washed and centrifuged once more as above. • 9) 200 μL of fixing solution (1% papraledehyde in 1% BSA/PBS) was added into each well.
(§1) Data was analyzed and IC50 values were generated using the add-in software for Microsoft Excel, Xlfit™ (version 5.3).

PI3K-δ (p110δ/p85α) = PI3K-δ (p110δ/p85α) (Homo sapiens (Human), UniProt O00329); assay: Transcreener KINASE Assay, fluorescent determination of PI3K enzyme activity; assay type: biochemical;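 note: ADP formed by the kinase detected via far-red competitive fluorescence polarization immunoassay after 80 min room-temperature reaction, inhibition relative to 2% DMSO wells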
Experimental: (§2) It is a universal, homogenous, high throughput screening (HTS) technology using a far-red, competitive fluorescence polarization immunoassay based on the detection of ADP to monitor the activity of enzymes that catalyze group transfer reactions. […] The reaction mixture was added into desired wells of a 96-well plate. The plate was sealed and incubated for 80 min at room temperature. • 2) Next, 25 uL ADP detection mix was added into each well. The plate was sealed again and incubated for 60 min at room temperature. Then fluorescence polarization was measured by Tecan Infinite F500 Reader.
as §1

PI3K-β = PI3K-β (Homo sapiens, UniProt P42338); assay: as above; assay type: biochemical; conditions: for inhibition at 1 µM: read-out: PI3K-β IH % (inhibition rate);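 for all read-outs here: recombinant PI3K enzyme reaction, 80 min at room temperature, ADP formed detected by far-red competitive fluorescence polarization immunoassay, inhibition relative to ADP in 2% DMSO control wells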
Experimental: as §2, §1

[2] = test system: AKT phosphorylation (p-AKT Ser473) in Ramos cells; assay: Inhibition of AKT phosphorylation in Ramos cell line (anti-IgM stimulated); assay type: cell-based; conditions: Homo sapiens, read-out: IC50, inhibition of AKT phosphorylation
Experimental: 6×10^4/mL Ramos cells (ATCC, CRL-1596; cells were cultured in RPMI1640 media with 10% FBS) were seeded into a 96-well plate (Beckman Dickinson, No. 356692) at 80 uL/well, 4,800 cells/well. After incubation for 3 hr at 37° C. under 5% CO2, Ramos cells were treated with 10 uL/well various concentrations of test compound (final concentrations of the test compound: 1 uM, 0.3 uM, 0.1 uM, 0.037 uM, 0.012 uM, 0.0041 uM, 0.0014 uM and 0.0005 uM) or 0.3% DMSO for 30 min, and then were stimulated with 10 uL/well 1 ug/ml Anti-IgM (Jackson Immunoresearch, 709-006-073) for 15-20 min. • 1) Cells were fixed with 100 μL of 4% pre-warmed Paraformaldehyde (2% final concentration), and incubated for 45 min at room temperature. • 2) The paraformaldehyde solution was removed. 100 μL of ice-cold methanol was added into each well and the plate was left at 4° C. for 30 min. • 3) The cells were washed for three times with 160 μL PBS. • 4) 40 μL 1:350 dilution of Rabbit anti-p-AKT(Ser^473) antibody (Cell Signaling Technology, 4060L) in antibody dilution buffer (1% BSA, in PBS) were added into each well. The plate was inculpated overnight at 4° C. • 5) The cells were washed for 3 times with 160 uL PBS. • 6) 45 μL of Goat anti-rabbit IgG Alexa488 antibody (Invitrogen, A11034) at a 1:1,000 dilution in antibody dilution buffer (1% BSA, in PBS) were added into each well. The plate was covered with foil to keep out of light and was incubated for 90 min at room temperature. • 7) The cells were washed for 3 times with 160 uL PBS. • 8) 50 μL of 1.5 μM Propidium Iodide (Sigma: P4170) solution was added into each well to determine cell number (1.5 mM Propidium iodide stock was diluted with 1:1,000 in PBS, and the final concentration was 1.5 μM). • 9) The plate was incubated at room temperature for 30 min and then was sealed with a cover-seal. • 10) The plate was loaded into the Acumen Explorer and scan with the appropriate instrument settings.
as §1

PI3K-γ (p110γ) = PI3K-γ (p110γ) (Homo sapiens (Human), UniProt P48736); assay: Transcreener KINASE Assay, fluorescent determination of PI3K enzyme activity; assay type: biochemical; conditions: for inhibition at 1 µM: read-out: PI3K-γ IH % (inhibition rate);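 for all read-outs here: ADP produced by p110γ kinase reaction, 80 min at room temperature, detected by far-red fluorescence polarization immunoassay, inhibition relative to 2% DMSO control wells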
PI3K-α (p110α/p85α) = PI3K-α (p110α/p85α) (Homo sapiens (Human), UniProt P42336); assay: as above; assay type: biochemical
Experimental: Inhibition rates were calculated as follow: IH %=(ADP amount under 2% DMSO well−ADP amount under test compound well)/ADP amount under 2% DMSO well×100%.

SU-DHL-6 cells = assay: In vitro cell proliferation assay in SU-DHL-6 cell line (CCK-8); assay type: cell-based; conditions: Homo sapiens, SU-DHL-6, 72 h
Experimental: Growth inhibition assays were carried out using 10% FBS supplemented media. Cells were seeded at a concentration of 15000 cells/well in a 96 well plate. Test compound dilution at different concentrations (final concentrations of the test compound: 1 uM, 0.3 uM, 0.1 uM, 0.037 uM, 0.012 uM, 0.0041 uM, 0.0014 uM and 0.0005 uM) were added after 24 hours. Growth was assessed using Cell Counting Kit-8 (CCK-8) (Dojindo, Cat#CK04) after the test compound were incubated for 72 h. Absorbance was read at the wave length 450 nm on Multiskan MK3 machine (Thermo).
as §1

[3] = human whole blood, anti-human IgE stimulation, CD63
[4] = Ramos cells, anti-IgM stimulation

PI3K-β, sequence (P42338 whole entry, looked up): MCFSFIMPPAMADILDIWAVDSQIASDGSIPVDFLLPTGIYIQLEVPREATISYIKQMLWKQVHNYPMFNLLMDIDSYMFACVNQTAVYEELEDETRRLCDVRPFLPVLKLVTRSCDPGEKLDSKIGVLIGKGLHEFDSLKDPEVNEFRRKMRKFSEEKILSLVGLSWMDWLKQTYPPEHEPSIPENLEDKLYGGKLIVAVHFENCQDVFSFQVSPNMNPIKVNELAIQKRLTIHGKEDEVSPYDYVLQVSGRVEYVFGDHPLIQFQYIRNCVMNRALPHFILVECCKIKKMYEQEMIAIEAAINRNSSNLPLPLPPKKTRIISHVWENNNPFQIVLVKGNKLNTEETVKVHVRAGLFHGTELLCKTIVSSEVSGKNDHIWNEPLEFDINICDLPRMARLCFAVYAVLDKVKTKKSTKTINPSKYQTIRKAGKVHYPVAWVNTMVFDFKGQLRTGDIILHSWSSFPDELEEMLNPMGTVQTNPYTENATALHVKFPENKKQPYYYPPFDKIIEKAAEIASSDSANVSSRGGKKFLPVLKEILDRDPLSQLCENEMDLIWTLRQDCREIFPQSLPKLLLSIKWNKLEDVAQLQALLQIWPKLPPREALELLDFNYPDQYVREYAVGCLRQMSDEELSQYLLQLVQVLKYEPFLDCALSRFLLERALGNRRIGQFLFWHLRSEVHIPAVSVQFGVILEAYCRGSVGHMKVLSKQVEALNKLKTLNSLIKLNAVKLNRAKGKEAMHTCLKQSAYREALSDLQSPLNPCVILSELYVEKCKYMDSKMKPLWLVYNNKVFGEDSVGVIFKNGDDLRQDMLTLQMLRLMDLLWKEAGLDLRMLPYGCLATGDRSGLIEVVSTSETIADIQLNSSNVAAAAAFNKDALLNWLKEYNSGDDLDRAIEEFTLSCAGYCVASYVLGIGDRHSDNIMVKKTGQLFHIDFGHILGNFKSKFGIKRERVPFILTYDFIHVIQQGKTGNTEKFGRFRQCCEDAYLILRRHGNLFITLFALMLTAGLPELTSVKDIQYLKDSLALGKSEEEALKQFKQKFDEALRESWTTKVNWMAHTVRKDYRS
PI3K-δ (p110δ/p85α), sequence (O00329 whole entry, species assumed): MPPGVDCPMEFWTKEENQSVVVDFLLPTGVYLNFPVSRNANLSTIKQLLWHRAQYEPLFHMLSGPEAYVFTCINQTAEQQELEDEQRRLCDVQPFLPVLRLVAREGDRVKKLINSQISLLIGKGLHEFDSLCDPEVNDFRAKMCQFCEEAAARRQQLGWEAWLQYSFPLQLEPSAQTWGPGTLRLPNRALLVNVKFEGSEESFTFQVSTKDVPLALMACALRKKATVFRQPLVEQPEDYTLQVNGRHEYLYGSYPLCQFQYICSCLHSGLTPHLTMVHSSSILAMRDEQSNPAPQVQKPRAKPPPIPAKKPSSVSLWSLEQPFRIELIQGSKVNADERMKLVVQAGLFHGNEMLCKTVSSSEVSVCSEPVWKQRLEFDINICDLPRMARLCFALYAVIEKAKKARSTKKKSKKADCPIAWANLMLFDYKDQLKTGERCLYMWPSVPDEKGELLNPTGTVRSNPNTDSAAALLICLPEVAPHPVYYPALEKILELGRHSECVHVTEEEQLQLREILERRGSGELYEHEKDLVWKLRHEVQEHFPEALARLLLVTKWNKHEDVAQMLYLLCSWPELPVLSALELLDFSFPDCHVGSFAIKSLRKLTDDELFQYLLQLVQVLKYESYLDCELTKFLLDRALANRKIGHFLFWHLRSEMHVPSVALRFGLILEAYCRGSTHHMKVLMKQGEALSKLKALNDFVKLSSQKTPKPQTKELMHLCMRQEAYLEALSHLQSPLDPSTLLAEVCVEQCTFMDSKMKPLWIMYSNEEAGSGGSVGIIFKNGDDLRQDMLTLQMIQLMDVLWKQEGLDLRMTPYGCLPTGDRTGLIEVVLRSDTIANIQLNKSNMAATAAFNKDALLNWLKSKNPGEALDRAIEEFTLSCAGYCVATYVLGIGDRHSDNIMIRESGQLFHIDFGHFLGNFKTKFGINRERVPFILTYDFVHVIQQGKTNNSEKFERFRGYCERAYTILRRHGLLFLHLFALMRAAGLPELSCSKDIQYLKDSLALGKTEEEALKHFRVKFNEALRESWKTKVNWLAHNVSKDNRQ
PI3K-δ (p110δ/p85α), sequence (P27986 whole entry partner, species assumed): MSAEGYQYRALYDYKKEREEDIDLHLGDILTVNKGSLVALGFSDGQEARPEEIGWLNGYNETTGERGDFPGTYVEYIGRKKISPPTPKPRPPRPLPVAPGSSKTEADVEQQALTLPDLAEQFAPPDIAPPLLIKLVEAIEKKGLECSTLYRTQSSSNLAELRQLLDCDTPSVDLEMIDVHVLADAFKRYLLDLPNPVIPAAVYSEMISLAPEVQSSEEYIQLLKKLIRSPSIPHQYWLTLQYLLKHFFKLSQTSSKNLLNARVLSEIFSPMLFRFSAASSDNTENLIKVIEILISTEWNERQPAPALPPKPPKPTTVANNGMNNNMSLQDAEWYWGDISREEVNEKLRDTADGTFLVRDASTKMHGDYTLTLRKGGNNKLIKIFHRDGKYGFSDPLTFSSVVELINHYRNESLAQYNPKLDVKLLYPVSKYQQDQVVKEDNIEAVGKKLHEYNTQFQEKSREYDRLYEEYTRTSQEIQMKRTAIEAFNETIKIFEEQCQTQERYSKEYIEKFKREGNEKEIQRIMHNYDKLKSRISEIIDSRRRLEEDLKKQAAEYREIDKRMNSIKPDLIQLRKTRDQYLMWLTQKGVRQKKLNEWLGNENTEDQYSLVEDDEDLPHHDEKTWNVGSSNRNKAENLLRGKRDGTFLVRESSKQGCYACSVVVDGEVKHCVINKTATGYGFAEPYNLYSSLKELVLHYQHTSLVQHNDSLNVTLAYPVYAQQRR
PI3K-γ (p110γ), sequence (P48736 whole entry, species assumed): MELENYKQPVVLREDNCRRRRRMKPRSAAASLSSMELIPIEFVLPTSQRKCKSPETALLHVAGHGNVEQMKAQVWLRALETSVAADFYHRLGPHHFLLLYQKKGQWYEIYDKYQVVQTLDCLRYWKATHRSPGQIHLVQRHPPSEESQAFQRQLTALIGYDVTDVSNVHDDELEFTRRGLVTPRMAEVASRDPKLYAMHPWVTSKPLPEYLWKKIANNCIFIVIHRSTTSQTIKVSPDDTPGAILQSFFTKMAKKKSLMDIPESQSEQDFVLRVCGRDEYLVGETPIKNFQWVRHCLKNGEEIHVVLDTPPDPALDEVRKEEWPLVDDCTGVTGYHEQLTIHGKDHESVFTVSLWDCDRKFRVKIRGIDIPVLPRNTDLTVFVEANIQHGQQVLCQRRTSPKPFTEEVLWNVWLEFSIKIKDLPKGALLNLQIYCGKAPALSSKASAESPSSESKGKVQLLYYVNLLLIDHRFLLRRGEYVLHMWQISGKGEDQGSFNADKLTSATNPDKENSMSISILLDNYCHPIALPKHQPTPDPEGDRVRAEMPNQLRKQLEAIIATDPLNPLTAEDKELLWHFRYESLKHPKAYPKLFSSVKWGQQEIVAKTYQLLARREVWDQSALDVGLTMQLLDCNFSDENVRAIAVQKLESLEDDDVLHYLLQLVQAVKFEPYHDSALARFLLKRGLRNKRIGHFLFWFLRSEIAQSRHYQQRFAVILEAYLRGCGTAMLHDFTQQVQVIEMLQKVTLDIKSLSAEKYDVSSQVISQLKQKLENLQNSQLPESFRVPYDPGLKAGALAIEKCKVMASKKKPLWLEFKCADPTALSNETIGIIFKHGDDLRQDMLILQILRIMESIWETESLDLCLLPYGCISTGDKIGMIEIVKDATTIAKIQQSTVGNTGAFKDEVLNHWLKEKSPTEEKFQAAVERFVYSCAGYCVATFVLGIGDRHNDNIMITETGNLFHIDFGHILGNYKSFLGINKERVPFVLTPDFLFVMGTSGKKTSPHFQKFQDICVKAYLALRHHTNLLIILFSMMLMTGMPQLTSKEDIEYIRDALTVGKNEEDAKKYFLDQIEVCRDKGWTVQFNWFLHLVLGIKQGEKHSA
PI3K-α (p110α/p85α), sequence (P42336 whole entry, species assumed): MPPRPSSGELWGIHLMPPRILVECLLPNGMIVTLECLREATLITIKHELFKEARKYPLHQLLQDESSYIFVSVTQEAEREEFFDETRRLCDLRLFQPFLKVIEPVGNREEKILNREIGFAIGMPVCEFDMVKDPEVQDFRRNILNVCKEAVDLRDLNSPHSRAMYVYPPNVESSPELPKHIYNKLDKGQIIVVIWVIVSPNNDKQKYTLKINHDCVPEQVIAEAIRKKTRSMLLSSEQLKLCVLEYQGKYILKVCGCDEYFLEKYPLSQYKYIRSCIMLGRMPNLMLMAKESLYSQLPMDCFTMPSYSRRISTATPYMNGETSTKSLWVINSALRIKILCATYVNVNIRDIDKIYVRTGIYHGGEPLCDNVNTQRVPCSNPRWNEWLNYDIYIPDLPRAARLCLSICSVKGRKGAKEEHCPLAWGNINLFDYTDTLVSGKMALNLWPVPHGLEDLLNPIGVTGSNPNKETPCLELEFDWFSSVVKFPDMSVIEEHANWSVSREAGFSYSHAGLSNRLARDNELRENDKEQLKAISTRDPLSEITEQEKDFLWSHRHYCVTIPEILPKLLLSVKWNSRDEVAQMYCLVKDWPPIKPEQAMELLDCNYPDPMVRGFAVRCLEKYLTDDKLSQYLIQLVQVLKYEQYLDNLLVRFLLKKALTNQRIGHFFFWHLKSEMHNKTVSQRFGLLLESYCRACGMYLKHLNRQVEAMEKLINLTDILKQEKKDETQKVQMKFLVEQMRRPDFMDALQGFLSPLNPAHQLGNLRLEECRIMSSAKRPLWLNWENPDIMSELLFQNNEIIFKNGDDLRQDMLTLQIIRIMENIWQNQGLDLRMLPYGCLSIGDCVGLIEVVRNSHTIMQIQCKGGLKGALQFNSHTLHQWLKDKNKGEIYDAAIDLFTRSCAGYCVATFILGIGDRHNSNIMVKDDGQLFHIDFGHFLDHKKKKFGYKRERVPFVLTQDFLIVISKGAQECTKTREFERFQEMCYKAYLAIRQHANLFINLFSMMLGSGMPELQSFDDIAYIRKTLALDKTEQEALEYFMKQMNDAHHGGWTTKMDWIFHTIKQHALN
PI3K-α (p110α/p85α), sequence (P27986 whole entry partner, species assumed): as the sequence (P27986 whole entry partner, species assumed) above

| Structure (SMILES) | IC50 [1, 3] [nM] | IC50 (PI3K-δ (p110δ/p85α)) [nM] | IC50 (PI3K-β) [nM] | IC50 [2, 4] [nM] | IC50 (PI3K-γ (p110γ)) [nM] | inhibition at 1 µM (PI3K-β; at 1 μM) [%] | further results |
| --- | --- | --- | --- | --- | --- | --- | --- |
| Cc1cccc(-c2nn3c(Cl)cnc3cc2[C@H](C)Nc2ncnc(N)c2C#N)c1 [Compound 62] | 15 | 2 | 1230 | 1 | 247 |  |  |
| C[C@H](Nc1ncnc(N)c1C#N)c1cc2ncc(Cl)n2nc1-c1cccc(F)c1F [Compound 36] |  | 3 | 1310 | 1 | 243 |  |  |
| Cc1nc2cc([C@H](C)Nc3ncnc(N)c3C#N)c(-c3ccccc3)nn2c1Cl [Compound 59] | 100 | 5 | 1160 | 6 | 2390 |  |  |
| Cc1cc(F)cc(-c2nn3c(Cl)cnc3cc2[C@H](C)Nc2ncnc(N)c2C#N)c1 [Compound 67] | 10 | 5 | 3580 | 3 | 1140 |  |  |
| C[C@H](Nc1ncnc(N)c1C#N)c1cc2ncc(Cl)n2nc1-c1cccc(S(C)(=O)=O)c1 [Compound 46] |  | 4 | 1320 | 6 | 50 |  |  |
| C[C@H](Nc1ncnc(N)c1C(N)=O)c1cc2ncc(Cl)n2nc1-c1ccccc1 [Compound 53, (S)-4-amino-6-((1-(3-chloro-6-phenylimidazo[1,2-b]pyridazin-7-yl)ethyl)amino)pyrimidine-5-carboxamide] |  |  |  | 16 |  | 30.5 | inhibition at 1 µM (PI3K-γ (p110γ); at 1 μM): 34.3% |
| C[C@H](Nc1ncnc(N)c1C#N)c1cc2ncc(Cl)n2nc1-c1ccc2cccnc2c1 [Compound 61] | 109 | 7 |  | 41 |  | 24.4 | inhibition at 1 µM (PI3K-γ (p110γ); at 1 μM): 26.5% |
| C[C@H](Nc1ncnc(N)c1C#N)c1cc2ncc(Cl)n2nc1-c1cccc(C#N)c1 [Compound 65] | 14 | 2 | 1260 | 2 | 611 |  |  |
| C[C@H](Nc1ncnc(N)c1-c1nn[nH]n1)c1cc2ncc(Cl)n2nc1-c1ccccc1 [Compound 21, (S)—N^4-(1-(3-chloro-6-phenylimidazo[1,2-b]pyridazin-7-yl)ethyl)-5-(2H-tetrazol-5-yl)pyrimidine-4,6-diamine] |  | 6 |  |  | 424 |  | inhibition at 1 µM (PI3K-α (p110α/p85α); at 1 μM, read-out: PI3K-α IH % (inhibition rate)): 21.7% |
| C[C@H](Nc1ncnc(N)c1C#N)c1cc2ncc(Cl)n2nc1-c1ccc2scnc2c1 [Compound 74] |  | 9 |  | 23 |  | 49.4 | inhibition at 1 µM (PI3K-γ (p110γ); at 1 μM): 40.8% |
| C[C@H](Nc1ncnc(N)c1C#N)c1cc2ncc(Cl)n2nc1-c1cccc(Cl)c1 [Compound 41] | 18 | 3 | 1330 | 12 | 499 |  |  |
| C[C@H](Nc1ncnc(N)c1C#N)c1cc2ncc(Cl)n2nc1-c1cc(F)ccc1F [Compound 35] |  | 4 |  | 13 |  | 67.6 | inhibition at 1 µM (PI3K-γ (p110γ); at 1 μM): 64.6% |
| C[C@H](Nc1ncnc(N)c1C#N)c1cc2ncc(Cl)n2nc1-c1ccccc1C(F)(F)F [Compound 45] |  | 3 | 450 | 3 | 195 |  |  |
| CCC(Nc1ncnc2[nH]cnc12)c1cc2ncc(Cl)n2nc1-c1ccccc1F (single isomer, unassigned) [Compound 25] | 37 |  |  | 5 |  |  | PI3K-β IH % (inhibition rate) (PI3K-β; at 1 μM): 22.8%; IC50 (SU-DHL-6 cells): 32 nM |
| CCC(Nc1ncnc(N)c1C#N)c1cc2ncc(Cl)n2nc1-c1cccc(F)c1 (stereo not shown) [Compound 24] | 11 | 2 |  | 7 |  | 46.6 | IC50 (SU-DHL-6 cells): 11 nM; inhibition at 1 µM (PI3K-γ (p110γ); at 1 μM): 44.5% |
| C[C@H](Nc1ncnc2[nH]cnc12)c1cc2ncc(Cl)n2nc1-c1cccc(F)c1 [Compound 16] |  | 3 |  |  | 326 | 27.5 | IC50 (PI3K-α (p110α/p85α)): > 1000 nM |
| Cc1ccccc1-c1nn2c(Cl)cnc2cc1[C@H](C)Nc1ncnc(N)c1C#N [Compound 31, (S)-4-amino-6-((1-(3-chloro-6-(o-tolyl)imidazo[1,2-b]pyridazin-7-yl)ethyl)amino)pyrimidine-5-carbonitrile] |  | 4 | 371 | 2 | 146 |  |  |
| C[C@H](Nc1ncnc(N)c1Cl)c1cc2ncc(Cl)n2nc1-c1ccccc1 [Compound 40] |  | 2 | 277 | 3 | > 333 |  |  |
| C[C@H](Nc1ncnc(N)c1C#N)c1cc2ncc(Cl)n2nc1-c1cccnc1 [Compound 77] |  | 2 | 238 | 3 | 436 |  |  |
| C[C@@H](c1cc2ncc(Cl)n2nc1-c1ccccc1)n1ccc2c(N)ncnc21 [Compound 27, (S)-7-(1-(3-chloro-6-phenylimidazo[1,2-b]pyridazin-7-yl)ethyl)-7H-pyrrolo[2,3-d]pyrimidin-4-amine] | 565 | 25 |  |  |  | 9.5 | inhibition at 1 µM (PI3K-γ (p110γ); at 1 μM): 24.9% |
| Cc1nc(N)c(C#N)c(N[C@@H](C)c2cc3ncc(Cl)n3nc2-c2ccccc2)n1 [Compound 32] |  | 15 |  | 20 | 243 | 23.8 |  |
| C[C@H](Nc1ncnc(N)c1C#N)c1cc2ncc(Cl)n2nc1-c1cc(F)cc(F)c1 [Compound 30, (S)-4-amino-6-((1-(3-chloro-6-(3,5-difluorophenyl)imidazo[1,2-b]pyridazin-7-yl)ethyl)amino)pyrimidine-5-carbonitrile] |  | 3 | 1040 |  | 410 |  | IC50 ([1]; Homo sapiens): 6 nM; IC50 ([2]; Ramos): 1 nM |
| CC(Nc1ncnc(N)c1C#N)c1cc2ncc(Cl)n2nc1-c1ccccc1 (racemic) [Compound 2, 4-amino-6-((1-(3-chloro-6-phenylimidazo[1,2-b]pyridazin-7-yl)ethyl)amino)pyrimidine-5-carbonitrile] |  |  |  |  |  |  | IC50 (PI3K-α (p110α/p85α)): > 1000 nM |
| C[C@H](Nc1ncnc(N)c1C#N)c1cc2ncc(Cl)n2nc1-c1ccccc1S(C)(=O)=O [Compound 68] | 2 | 2 | 963 | 1 | 345 |  |  |
| C[C@H](Nc1ncnc(N)c1C(=O)O)c1cc2ncc(Cl)n2nc1-c1ccccc1 [Compound 52, (S)-4-amino-6-((1-(3-chloro-6-phenylimidazo[1,2-b]pyridazin-7-yl)ethyl)amino)pyrimidine-5-carboxylic acid] |  | 80 |  |  |  | -6.3 | inhibition at 1 µM (PI3K-γ (p110γ)): -26.1% |
| CCC(Nc1ncnc(N)c1C#N)c1cc2ncc(Cl)n2nc1-c1ccccn1 (stereo not shown) [Compound 29] |  | 3 | 174 |  |  |  | IC50 (SU-DHL-6 cells): 11 nM; PI3K-γ IH % (inhibition rate) (PI3K-γ (p110γ); at 1 μM): 35% |
| C[C@H](Nc1ncnc(N)c1-c1cnn(C)c1)c1cc2ncc(Cl)n2nc1-c1ccccc1 [Compound 57] |  | 62 |  |  |  | 6.3 | inhibition at 1 µM (PI3K-γ (p110γ); at 1 μM): 30.3% |
| C[C@H](Nc1ncnc(N)c1C#N)c1cc2ncc(Cl)n2nc1-c1cc(F)cc(Cl)c1 [Compound 66] | 262 | 9 | 4300 | 2 | 1120 |  |  |
| C[C@H](Nc1ncnc(N)c1C#N)c1cc2ncc(Cl)n2nc1-c1cccc(C(F)(F)F)c1 [Compound 48] | 41 | 9 | 4080 | 8 | 1330 |  |  |
